Measurements published in patent US20230320978A1, “COMPOSITIONS AND METHODS FOR LOWERING INTRACRANIAL PRESSURE” (THE REGENTS OF THE UNIVERSITY OF COLORADO, A BODY CORPORATE, priority 2020, published 2023).

What was measured:
Assay type in all cases: in vivo
C57/BL6 mice [1] = assay: Tracer recovery from nasal mucosa after single intranasal dose and ventricular injection of fluorescent tracer; conditions: single intranasal dose; for increase in nasal tracer recovery relative to vehicle-treated controls: commercial concentrations, p<0.05 vs control; for nasal tracer recovery at higher doses: higher doses than the commercial concentration (5x or 10x); for increase in tracer recovery from the nasal mucosa relative to control animals: p<0.001 compared to control
Experimental: In another exemplary method, compositions including prostaglandin F2-alpha analogues were used to analyze increased lymphatic channel contractility in the nasal mucosa of experimental animals. In this example, prostaglandin F2-alpha analogues latanoprost, bimatoprost, travoprost, latanoprostene bunod, and tafluprost were administered via an intranasal vehicle into the nasal mucosa of mice.
In this example, a total of 67 animals were studied using a scaled dosing technique in which each prostaglandin analog was evaluated at its commercial ophthalmic concentration as well as one or two more concentrated forms (either 5× or 10×).
Commercially available prostaglandin F2-alpha analogues used in the treatment of glaucoma were selected for evaluation; these included latanoprost, bimatoprost, travoprost, latanoprostene bunod, and tafluprost. Initial experiments were conducted with topical ophthalmic preparations, and pharmaceutical grade drug also was obtained and placed into solution for use in a more concentrated form. Agents were solubilized in DMSO and diluted in normal saline.
For single inhalation trails described herein, awake adult male and female C57/BL6 mice (approx. 6 weeks of age) were administered intranasal vehicle (10% DMSO) or drug solution (total 8 μl) by placing droplets (1-2 μl) of liquid at the nares using a micropipette and allowing the animal to inhale the liquid spontaneously. Anesthesia with ketamine and xylazine was administered via intraperitoneal injection, and anesthetized animals were placed within a stereotaxic apparatus. For multiday studies, intranasal drug administration was performed on awake animals daily using the same procedure described above. Approximately 6 hours after the third daily dose was given, animals were anesthetized and placed within a stereotaxic apparatus. A midline incision was created along the scalp, and the right lateral ventricle was targeted with placement of a 26-gauge needle to a depth of 3 mm into the brain at a position 1 mm lateral and 0.3 mm anterior to bregma. A 5 μl intraventricular injection of fluorescent tracer (AlexaFluor^647-ovalbumin solution) was delivered at a rate of 100 nl/seconds using a Hamilton syringe and an electric pump. Animals remained anesthetized for the 1 hour recovery period post injection and were then euthanized with a lethal overdose of ketamine followed by secondary cervical dislocation. Nasal turbinates were harvested, and tissue extracts were analyzed by ELISA.
The experimental technique was validated by evaluating recovery of fluorescent tracer from nasal mucosa after ventricular injection in the absence of intranasal treatment. Time points for tissue harvest were selected based on increased recovery at 60 minutes versus 30 minutes, with later harvest raising concern for potential contamination of specimens by hematogenous CSF absorption and recirculation of tracer throughout the tissues via arterial flow.
Statistical analyses were conducted with Stata using either two-tailed Student's t-tests or ANOVA RM with Dunnet's post hoc analysis.

C57/BL6 mice [2] = assay: as above; conditions: single inhalation, lower doses, p<0.05 relative to controls
C57/BL6 mice [3] = assay: Tracer recovery from nasal turbinates after intranasal dosing once a day for three consecutive days; conditions: 0.1, 0.5 or 1 mg/ml once a day for 3 days
Experimental: In another example, an additional 14 animals were administered inhaled doses of latanoprost (either 0.1, 0.5, or 1 mg/ml) once a day for three (3) consecutive days. Nasal turbinates were isolated 1 hour after ventricular tracer injection and between 7 and 9 hours after the final latanoprost dose was given intranasally according to the exemplary methods described herein.
For single inhalation trails described herein, awake adult male and female C57/BL6 mice (approx. 6 weeks of age) were administered intranasal vehicle (10% DMSO) or drug solution (total 8 μl) by placing droplets (1-2 μl) of liquid at the nares using a micropipette and allowing the animal to inhale the liquid spontaneously. Anesthesia with ketamine and xylazine was administered via intraperitoneal injection, and anesthetized animals were placed within a stereotaxic apparatus. For multiday studies, intranasal drug administration was performed on awake animals daily using the same procedure described above. Approximately 6 hours after the third daily dose was given, animals were anesthetized and placed within a stereotaxic apparatus. […] Nasal turbinates were harvested, and tissue extracts were analyzed by ELISA. […]

Row | SMILES | increase in nasal tracer recovery relative to vehicle-treated controls (C57/BL6 mice [1]) | nasal tracer recovery at higher doses (C57/BL6 mice [1]) | tracer recovery relative to controls, fluorometric analysis of nasal turbinate homogenates (words, FIG. 3) (C57/BL6 mice [2]) | effect on nasal tracer recovery at any tested dose (C57/BL6 mice [1]) | also measured
1 | CCNC(=O)CCC/C=C\C[C@@H]1[C@@H](/C=C/[C@@H](O)CCc2ccccc2)[C@H](O)C[C@@H]1O [bimatoprost] | approximately 1.5 fold | did not appear to improve at higher doses | Some enhanced tracer recovery relative to controls |  | 
2 | CC(C)OC(=O)CCC/C=C\C[C@@H]1[C@@H](CC[C@@H](O)CCc2ccccc2)[C@H](O)C[C@@H]1O [latanoprost, isopropyl (Z)-7-[(1R,2R,3R,5S)-3,5-dihydroxy-2-[(3R)3-hydroxy-5-phenylpentyl]-cyclopentyl] hept-5-enoate] |  |  |  |  | difference in tracer recovery amongst the 3 doses (C57/BL6 mice [3]): no statistically significant difference; increase in tracer recovery relative to controls (C57/BL6 mice [3]; turbinates isolated 1 hour after tracer injection, 7 to 9 hours after final dose, p<0.05): ~3 fold; increase in tracer recovery from the nasal mucosa relative to control animals (C57/BL6 mice [1]; 0.5 mg/ml solution, after 60 minutes): approximately 10 fold; increase in tracer recovery from the nasal mucosa relative to control animals (C57/BL6 mice [1]; 1 mg/ml solution, after 60 minutes): approximately 10 fold; dose dependence of the increase in tracer recovery from the nasal mucosa (C57/BL6 mice [1]; 0.1 to 1 mg/ml, after 60 minutes): semi dose-dependent increase; tracer recovery compared with all tested prostaglandin analogs and 0.1 mg/ml latanoprost (C57/BL6 mice [1]; concentrated 0.5 mg/ml and 1 mg/ml): significant increase in tracer recovery over all tested prostaglandin analogs and 0.1 mg/ml latanoprost; increased tracer recovery vs control (C57/BL6 mice [1]; standard ophthalmic dose 0.1 mg/ml, p<0.01 vs control): approximately 6 fold
3 | O=C(CCC/C=C\C[C@@H]1[C@@H](CC[C@@H](O)CCc2ccccc2)[C@H](O)C[C@@H]1O)OCCCCO[N+](=O)[O-] [latanoprostene bunod] |  |  |  | Neither travoprost nor latanoprostene bunod demonstrated a measurable effect | 
4 | CC(C)OC(=O)CCC/C=C\C[C@@H]1[C@@H](/C=C/C(F)(F)COc2ccccc2)[C@H](O)C[C@@H]1O [tafluprost] | approximately 1.5 fold | did not appear to improve at higher doses | Some enhanced tracer recovery relative to controls |  | 
5 | CC(C)OC(=O)CCC/C=C\C[C@@H]1[C@@H](/C=C/[C@@H](O)COc2cccc(C(F)(F)F)c2)[C@H](O)C[C@@H]1O [travoprost] |  |  |  | Neither travoprost nor latanoprostene bunod demonstrated a measurable effect | 
